What was measured:
[1] = target: T1, recombinant human Myt1 (full length PKMYT1) (Homo sapiens, UniProt Q99640); assay: Myt1 enzymatic assay (ADP-Glo kinase assay, ATP hydrolysis)
T1 sequence (Q99640 1-499): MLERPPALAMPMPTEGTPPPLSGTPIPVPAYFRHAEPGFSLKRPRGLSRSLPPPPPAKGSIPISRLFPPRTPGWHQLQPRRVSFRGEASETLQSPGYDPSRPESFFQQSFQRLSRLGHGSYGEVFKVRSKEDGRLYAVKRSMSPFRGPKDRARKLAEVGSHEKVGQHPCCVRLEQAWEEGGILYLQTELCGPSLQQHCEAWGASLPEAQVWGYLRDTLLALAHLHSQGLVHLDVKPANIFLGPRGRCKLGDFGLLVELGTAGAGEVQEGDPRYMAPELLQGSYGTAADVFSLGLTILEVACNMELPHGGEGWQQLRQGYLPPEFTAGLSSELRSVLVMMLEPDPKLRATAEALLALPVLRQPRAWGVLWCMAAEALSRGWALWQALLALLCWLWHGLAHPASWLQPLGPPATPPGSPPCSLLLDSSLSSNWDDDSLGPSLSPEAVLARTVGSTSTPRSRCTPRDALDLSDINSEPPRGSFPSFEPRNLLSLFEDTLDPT
Method: Detection of Myt1 kinase activity utilized a recombinant human Myt1 kinase assay measuring the hydrolysis of ATP using a commercially available ADP-Glo Assay (ADP-Glo™ Kinase Assay from Promega, 10 000 assays, #V9102). […] After this, 5 μL of compounds (diluted in reaction buffer to 0.5% DMSO) was added to the microplate and the plate was spun briefly and incubated at 22° C. for 15 minutes. […] Luminescence was read using the Envision (250 ms integration). The IC50 and the % max inhibition were calculated for each inhibitor compound tested.

[2] = system: RPE1-hTERT Cas9 TP53−/− parental (WT) and CCNE1-overexpressing clones; assay: Dose-response proliferation assay (IncuCyte confluency), RPE1-hTERT parental vs CCNE1-overexpressing clones; type: cell-based; details: dose titration, FIG. 3C
Method: For dose-response proliferation assays using RPE1-hTERT and FT282-hTERT cell lines, cells were seeded in 96-well plates and dosed with serially diluted Myt1 inhibitor. Cells were imaged once per day using the IncuCyte S3 microscope and percent well confluency was calculated over time. Once cells reached four population doublings the experiment was ended and IC50 curves were plotted for the final time point. Percentage confluency was calculated relative to the cell confluency in the untreated wells.

IC50 [1] | Compound | sensitivity (cell viability) of CCNE1-overexpressing cells compared with corresponding WT cells [2]
0.922 µM | Cc1ccc(O)cc1-n1c(N)c(C(N)=O)c2nc(Cl)ccc21 [Compound 4] | –
– | Cc1ccc(O)c(C)c1-n1c(N)c(C(N)=O)c2cc(Cl)cnc21 (single isomer, unassigned) [Compound 133, S-2-amino-5-chloro-1-(3-hydroxy-2,6-dimethyl-phenyl)pyrrolo[2,3-b]pyridine-3-carboxamide] | more sensitive

From patent US20230158022A1, “METHODS OF USING MYT1 INHIBITORS” (Repare Therapeutics Inc., priority 2020, published 2023)
